Read-outs that look alike come from different tables or passages of the source.

For one test, the system named is Haemonchus contortus. As to the kind of experiment: Method A: Haemonchus contortus L1 larvae, microtitre plate screen. As to conditions: 96 h, read-out: motility inhibition.
The subject of test [1] is microfilaria of Dirofilaria immitis. As to the kind of experiment: Method F: microfilaria of Dirofilaria immitis, survival at 24 hours.
[2] abbreviates: survival of microfilaria at 24 hours.

In the case of `O=C(CO[C@H]1CC[C@H](Nc2ccc([N+](=O)[O-])c(C(F)(F)F)c2)CC1)N1CCN(Cc2oc3ccc(C(F)(F)F)cc3c2Cl)CC1` [Compound 253, 1-(4-[[3-chloro-5-(trifluoromethyl)-1-benzofuran-2-yl]methyl]piperazin-1-yl)-2-[[4-[[4-nitro-3-(trifluoromethyl)phenyl]amino]cyclohexyl]oxy]ethan-1-one], the inhibition at 5 µg/mL in the test with Haemonchus contortus is ≥ 90%. For the same molecule, the EC50 in test [1] (setting [2]) is < 0.1 µg/mL.
On the same counts, the results for `O=C(NCCO[C@H]1CC[C@H](Nc2ccc([N+](=O)[O-])c(C(F)(F)F)c2)CC1)C(=O)NCc1cc2ccccc2o1` [Compound 220, N^1-(benzofuran-2-ylmethyl)-N^2-(2-(4-(4-nitro-3-(trifluoromethyl)phenylamino)cyclohexyloxy)ethyl)oxalamide] are ≥ 90% and < 1 µg/mL.
On the same counts, the results for `O=C(NCCOc1ccc(Nc2ccc([N+](=O)[O-])c(C(F)(F)F)c2)cc1)C(=O)NCC1Cc2cc(C(F)(F)F)ccc2O1` (stereo not drawn) [Compound 227, N^1-(2-(4-(4-nitro-3-(trifluoromethyl)phenylamino)phenoxy)ethyl)-N^2-((5-(trifluoromethyl)-2,3-dihydrobenzofuran-2-yl)methyl)ethanediamide] are ≥ 90% and < 1 µg/mL.
On the same counts, the results for `O=[N+]([O-])c1ccc(N[C@H]2CC[C@H](OCC(=S)N3CCN(CC4Cc5cc(F)ccc5O4)CC3)CC2)cc1C(F)(F)F` (stereo partly drawn) [Compound 265, 1-[4-(5-fluoro-2,3-dihydro-benzofuran-2-ylmethyl)-piperazin-1-yl]-2-[4-(4-nitro-3-trifluoromethyl-phenylamino)-cyclohexyloxy]-ethanethione] are ≥ 90% and < 1 µg/mL.
As to `O=C(CO[C@H]1CC[C@H](Nc2ccc([N+](=O)[O-])c(C(F)(F)F)c2)CC1)N1CCN(c2ccc3cc(C(F)(F)F)ccc3c2)CC1` [Compound 232, 2-[4-(4-nitro-3-trifluoromethyl-phenylamino)-cyclohexyloxy]-1-[4-(6-trifluoromethyl-naphthalen-2-yl)-piperazin-1-yl]-ethanone], the inhibition at 5 µg/mL with Haemonchus contortus is ≥ 90%. Also, the EC50 in test [1] (setting [2]) was < 5 µg/mL.
With `O=C(CO[C@H]1CC[C@H](Nc2ccc([N+](=O)[O-])c(C(F)(F)F)c2)CC1)N1CCN(c2ccc3ccccc3c2)CC1` [Compound 14, 1-[4-(naphthalen-2-yl)piperazin-1-yl]-2-[(4-[[4-nitro-3-(trifluoromethyl)phenyl]amino]cyclohexyl)oxy]ethan-1-one], in the test on Haemonchus contortus, the inhibition at 5 µg/mL is ≥ 90%. Also, the EC50 in test [1] (setting [2]) was < 1 µg/mL.
The matching figures for `O=C(NCCO[C@H]1CC[C@H](Nc2ccc([N+](=O)[O-])c(C(F)(F)F)c2)CC1)C(=O)NCC1Cc2cc(C(F)(F)F)ccc2O1` (stereo partly drawn) [Compound 219, N^1-[2-[(4-[[4-nitro-3-(trifluoromethyl)phenyl]amino]cyclohexyl)oxy]ethyl]-N^2-[[5-(trifluoromethyl)-2,3-dihydro-1-benzofuran-2-yl]methyl]ethanediamide]: ≥ 90% and < 1 µg/mL.
Consider `CN(c1ccc([N+](=O)[O-])c(C(F)(F)F)c1)[C@H]1CC[C@H](OCC(=O)N2CCN(c3ccc4cc(F)ccc4n3)CC2)CC1` [Compound 247, 1-(4-(6-fluoroquinolin-2-yl)piperazin-1-yl)-2-(4-(methyl(4-nitro-3-(trifluoromethyl)phenyl)amino)cyclohexyloxy)ethanone], for which, in the test on Haemonchus contortus, the inhibition at 5 µg/mL is ≥ 90%. In test [1] (setting [2]), the EC50 was < 1 µg/mL.
On to `O=C(NCCOc1ccc(Nc2ccc([N+](=O)[O-])c(C(F)(F)F)c2)cc1)C(=O)NCC1Cc2cc(F)ccc2O1` (stereo not drawn) [Compound 225, N^1-((5-fluoro-2,3-dihydrobenzofuran-2-yl)methyl)-N^2-(2-(4-(4-nitro-3-(trifluoromethyl)phenylamino)phenoxy)ethyl)oxalamide], for which the inhibition at 5 µg/mL with Haemonchus contortus is ≥ 90%. Besides, the EC50 in test [1] (setting [2]) was < 1 µg/mL.
On the same counts, the results for `N#Cc1ccc(N[C@H]2CC[C@H](OCC(=O)N3CCN(Cc4oc5ccc(C(F)(F)F)cc5c4Cl)CC3)CC2)cc1C(F)(F)F` [Compound 305, 4-(4-{2-[4-(3-chloro-5-trifluoromethyl-benzofuran-2-ylmethyl)-piperazin-1-yl]-2-oxo-ethoxy}-cyclohexylamino)-2-trifluoromethyl-benzonitrile] are ≥ 90% and < 0.1 µg/mL.
For the molecule `O=C(CO[C@H]1CC[C@H](Nc2ccc([N+](=O)[O-])c(C(F)(F)F)c2)CC1)N1CCN(C(=O)c2cc3cc(F)ccc3o2)CC1` [Compound 182, 1-[4-[(5-fluoro-1-benzofuran-2-yl)carbonyl]piperazin-1-yl]-2-[(4-[[4-nitro-3-(trifluoromethyl)phenyl]amino]cyclohexyl)oxy]ethan-1-one], the inhibition at 5 µg/mL in the test with Haemonchus contortus was ≥ 90%. For the same molecule, in test [1] (setting [2]), the EC50 is < 5 µg/mL.
On the same counts, the results for `O=C(NCCO[C@H]1CC[C@H](Nc2ccc([N+](=O)[O-])c(C(F)(F)F)c2)CC1)C(=O)NCC1Cc2cc(Cl)ccc2O1` (stereo partly drawn) [Compound 218, N^1-[(5-chloro-2,3-dihydro-1-benzofuran-2-yl)methyl]-N^2-[2-[(4-[[4-nitro-3-(trifluoromethyl)phenyl]amino]cyclohexyl)oxy]ethyl]ethanediamide] are ≥ 90% and < 1 µg/mL.
Take `C[C@@H]1CN(CC2Cc3cc(F)ccc3O2)[C@@H](C)CN1C(=O)CO[C@H]1CC[C@H](Nc2ccc(C#N)c(C(F)(F)F)c2)CC1` (stereo partly drawn) [Compound 308, 4-(4-{2-[(2R,5S)-4-(5-fluoro-2,3-dihydro-benzofuran-2-ylmethyl)-2,5-dimethyl-piperazin-1-yl]-2-oxo-ethoxy}-cyclohexylamino)-2-trifluoromethyl-benzonitrile]: the inhibition at 5 µg/mL in the test with Haemonchus contortus is ≥ 90%. Further, the EC50 in test [1] is < 0.1 µg/mL.
Take `O=C(CO[C@H]1CC[C@H](Nc2ccc([N+](=O)[O-])c(C(F)(F)F)c2)CC1)N1CCN(C(=O)c2cc3cc(Cl)ccc3o2)CC1` [Compound 181, 1-[4-[(5-chloro-1-benzofuran-2-yl)carbonyl]piperazin-1-yl]-2-[(4-[[4-nitro-3-(trifluoromethyl)phenyl]amino]cyclohexyl)oxy]ethan-1-one]: the inhibition at 5 µg/mL with Haemonchus contortus was ≥ 90%. The EC50 in test [1] (setting [2]) is < 1 µg/mL.
Consider `N#Cc1ccc(NC2CCN(C(=O)CCCN3CCN(c4ccc5cc(F)ccc5n4)CC3)CC2)cc1C(F)(F)F` [Compound 103, 4-[(1-[4-[4-(6-fluoroquinolin-2-yl)piperazin-1-yl]butanoyl]piperidin-4-yl)amino]-2-(trifluoromethyl)benzonitrile], for which the inhibition at 5 µg/mL in the test with Haemonchus contortus is ≥ 90%. For the same molecule, the EC50 in test [1] (setting [2]) was < 5 µg/mL.
The matching figures for `CC(CN1CCN(c2ccc3cc(F)ccc3n2)CC1)C(=O)N1CCC(Nc2ccc([N+](=O)[O-])c(C(F)(F)F)c2)CC1` (stereo not drawn) [Compound 100, 3-[4-(6-fluoroquinolin-2-yl)piperazin-1-yl]-2-methyl-1-(4-[[4-nitro-3-(trifluoromethyl)phenyl]amino]piperidin-1-yl)propan-1-one]: ≥ 90% and < 5 µg/mL.
On the same counts, the results for `CC(c1oc2ccc(C(F)(F)F)cc2c1Cl)N1CCN(C(=O)CO[C@H]2CC[C@H](Nc3ccc([N+](=O)[O-])c(C(F)(F)F)c3)CC2)CC1` (stereo partly drawn) [Compound 255, 2-1-(4-[1-[3-chloro-5-(trifluoromethyl)-1-benzofuran-2-yl]ethyl]piperazin-1-yl)-2-[[4-[[4-nitro-3-(trifluoromethyl)phenyl]amino]cyclohexyl]oxy]ethan-1-one] are ≥ 90% and < 1 µg/mL.
As for `N#Cc1ccc(NC2CCN(C(=O)CCCN3CCN(c4ccc5cc(C(F)(F)F)ccc5n4)CC3)CC2)cc1C(F)(F)F` [Compound 95, 2-(trifluoromethyl)-4-[[1-(4-[4-[6-(trifluoromethyl)quinolin-2-yl]piperazin-1-yl]butanoyl)piperidin-4-yl]amino]benzonitrile], the EC50 in test [1] (setting [2]) was < 5 µg/mL.
Turning to `Cc1cc(N2CCN(CC(C)C(=O)N3CCC(Nc4ccc([N+](=O)[O-])c(C(F)(F)F)c4)CC3)CC2)nc2ccc(F)cc12` (stereo not drawn) [Compound 102, 3-[4-(6-fluoro-4-methylquinolin-2-yl)piperazin-1-yl]-2-methyl-1-(4-[[4-nitro-3-(trifluoromethyl)phenyl]amino]piperidin-1-yl)propan-1-one], the EC50 in test [1] (setting [2]) was < 1 µg/mL.
Consider `CC(CN1CCN(c2cccc3ccccc23)CC1)C(=O)N1CCC(Nc2ccc([N+](=O)[O-])c(C(F)(F)F)c2)CC1` (stereo not drawn) [Compound 19, 2-methyl-3-(4-naphthalen-1-yl-piperazin-1-yl)-1-[4-(4-nitro-3-trifluoromethyl-phenylamino)-piperidin-1-yl]-propan-1-one], for which the EC50 in test [1] (setting [2]) was < 1 µg/mL.
For the molecule `O=C(NCCOc1ccc(Nc2ccc([N+](=O)[O-])c(C(F)(F)F)c2)cc1)C(=O)NCc1cc2cc(F)ccc2o1` [Compound 229, N^1-((5-fluorobenzofuran-2-yl)methyl)-N^2-(2-(4-(4-nitro-3-(trifluoromethyl)phenylamino)phenoxy)ethyl)oxalamide], the EC50 in test [1] (setting [2]) is < 1 µg/mL.
Still for that read-out and setting: with `N#Cc1ccc(NC2CCN(C(=O)CCCN3CCN(c4ccc5ccccc5n4)CC3)CC2)cc1C(F)(F)F` [Compound 94, 4-[(1-[4-[4-(quinolin-2-yl)piperazin-1-yl]butanoyl]piperidin-4-yl)amino]-2-(trifluoromethyl)benzonitrile] the figure was < 5 µg/mL; with `O=C(CO[C@H]1CC[C@H](Nc2ccc([N+](=O)[O-])c(C(F)(F)F)c2)CC1)N1CCN(c2cccc3ccccc23)CC1` [Compound 20, 1-[4-(naphthalen-1-yl)piperazin-1-yl]-2-[(4-[[4-nitro-3-(trifluoromethyl)phenyl]amino]cyclohexyl)oxy]ethan-1-one], < 1 µg/mL; with `N#Cc1ccc(NC2CCN(C(=O)CCCN3CCN(c4ccc5ccccc5c4)CC3)CC2)cc1C(F)(F)F` [Compound 15, 4-[(1-[4-[4-(naphthalen-2-yl)piperazin-1-yl]butanoyl]piperidin-4-yl)amino]-2-(trifluoromethyl)benzonitrile], < 5 µg/mL.
Same read-out and setting: with `CN(C(=O)C(=O)NCCO[C@H]1CC[C@H](Nc2ccc([N+](=O)[O-])c(C(F)(F)F)c2)CC1)c1ccc2cc(F)ccc2n1` [Compound 242] the figure was < 1 µg/mL.
